For orientation: Ki means a dissociation constant, usually derived from enzyme kinetics or from competition with a known ligand. Read a high Ki as lower affinity.

From ChEMBL document CHEMBL1139469, “Synthesis and 3D QSAR of new pyrazolo[3,4-b]pyridines: potent and selective inhibitors of A1 adenosine receptors” (J Med Chem, 2005) come the findings set out here.

Molecules are shown by their SMILES.

The target of this assay is Adenosine receptor A1 (Bos taurus) (UniProt P28190). Kind of assay: Displacement of [3H]DPCPX from bovine adenosine A1 receptor in bovine cortical membranes.
Sequence of Adenosine receptor A1 (Bos taurus) (P28190 whole entry, looked up): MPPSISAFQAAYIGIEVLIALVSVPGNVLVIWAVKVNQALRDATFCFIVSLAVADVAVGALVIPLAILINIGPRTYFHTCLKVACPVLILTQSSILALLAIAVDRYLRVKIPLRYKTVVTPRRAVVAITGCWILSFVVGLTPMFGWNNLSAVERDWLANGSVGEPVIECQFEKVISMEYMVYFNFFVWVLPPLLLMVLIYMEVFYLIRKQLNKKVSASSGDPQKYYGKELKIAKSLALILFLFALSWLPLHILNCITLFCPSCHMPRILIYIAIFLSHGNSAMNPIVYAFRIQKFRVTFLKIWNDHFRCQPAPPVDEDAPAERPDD

`O=C(Nc1nc2ccccc2n2c(=O)n(-c3ccc(Cl)cc3)nc12)c1ccccc1`: the Ki was 100 nM.
`Cc1ccc2c(O)cc(-c3ccc(N)cc3)nc2n1` showed a Ki of 6.31 nM. Compared with the last compound, the Ki is about 16-fold lower.
For the compound `CCCc1cc(O)c2ccc(C)nc2n1`, affinity was put at a Ki of 50.1 nM. This Ki is about 7.9-fold higher than that of the compound before.
In turn, `CN(C)c1ccc2c(O)cc(-c3ccccc3)nc2n1` gave a Ki of 0.631 nM.
`Cc1cc(O)c2ccc(=O)[nH]c2n1` showed a Ki of 10000 nM.
The value for `CCCNc1c(C(=O)OCC)cnc2c1cnn2CC(Cl)c1ccccc1` (stereo not given) was 100 nM; that for `CCOC(=O)c1cnc2c(cnn2CC(Cl)c2ccccc2)c1NCCc1ccccc1` (stereo not given) was 50.1 nM.
`Cn1c2ccccc2n2c(=O)c(-c3cccs3)nnc12`: the affinity corresponds to a Ki of 79.4 nM.
With `Oc1cc(-c2ccccc2)nc2nc(Oc3ccccc3)ccc12`, the affinity corresponds to a Ki of 25.1 nM.
`O=c1c(-c2ccco2)nnc2n(Cc3ccccc3)c3ccccc3n12`: the Ki is 1000 nM.
With `Oc1ccc(-c2nnc3nc4ccccc4n3c2O)cc1`, the Ki is 251 nM.
For the compound `Cn1c2ccccc2n2c(=O)c(-c3ccco3)nnc12`, the affinity, expressed as Ki, was 794 nM.
For `O=c1c(-c2ccccc2)nnc2n(-c3ccccc3)c3ccccc3n12` the value was 20 nM; for `Cc1nnc2nc3ccccc3n2c1O`, 3980 nM.
In turn, `Cc1ccc2c(N)cc(-c3ccccc3)nc2n1` showed a Ki of 15.8 nM.
With `Cn1c2ccccc2n2c(=O)c(-c3ccccc3)nnc12`, the Ki is 63.1 nM.
For `O=c1n(-c2ccccc2)nc2c(NC3CCCC3)nc3ccccc3n12` the value was 0.398 nM; for `O=c1n(-c2cccc(F)c2)nc2c(NC3CCCC3)nc3ccccc3n12`, 1 nM; for `Oc1ccc(-c2nnc3nc4ccccc4n3c2O)cc1O`, 501 nM.
Compound `Nc1nc2ccccc2n2c(=O)n(-c3cccc(F)c3)nc12` showed a Ki of 31.6 nM.
The value for `CSc1nc(NCCc2ccccc2)c2cnn(CC(Cl)c3ccccc3)c2n1` (stereo not given) was 10000 nM.
Compound `O=c1n(-c2ccc(Cl)cc2)nc2c(NC3CCCCC3)nc3ccccc3n12` had a Ki of 79.4 nM.
The value for `CCCCNc1nc(SC)nc2c1cnn2CC(Cl)c1ccccc1` (stereo not given) was 2000 nM.
The compound `O=C(Nc1ccccc1)Nc1nc2ccccc2n2c(=O)n(-c3ccc(Cl)cc3)nc12` gave a Ki of 50.1 nM.
Regarding `Cc1ccc2c(NC3CCCCC3)cc(-c3ccccc3)nc2n1`, the Ki is 31.6 nM.
As for `O=c1[nH]nc2c(NCCc3ccccc3)nc3ccccc3n12`, the affinity, expressed as Ki, was 5.01 nM.
Compound `CCOC(=O)c1cnc2c(cnn2CC(Cl)c2ccccc2)c1NCc1ccccc1` (stereo not given) gave a Ki of 126 nM.
For `Cc1ccc2c(NN)cc(-c3ccccc3)nc2n1` the value was 100 nM.
The compound `COc1cc(-c2ccccc2)nc2nc(C)ccc12` showed a Ki of 6310 nM.
`Cc1ccc2c(O)cc(-c3ccc(F)cc3)nc2n1` had a Ki of 5.01 nM.
Take `Cn1c(=O)ccc2c(O)cc(-c3ccccc3)nc21`: the affinity corresponds to a Ki of 5010 nM.
For the compound `Nc1nc2ccccc2n2c(=O)n(-c3ccccc3)nc12`, the Ki was 10 nM.
Compound `CCOc1ccc2c(O)cc(-c3ccccc3)nc2n1` gave a Ki of 5.01 nM.
Consider `Cc1cccc(-n2nc3c(NC4CCCCC4)nc4ccccc4n3c2=O)c1`, for which affinity was put at a Ki of 3.98 nM. The Ki values of the last two compounds are within 1.5-fold of each other.
As to `O=c1[nH]nc2c(NCc3ccccc3)nc3ccccc3n12`, the affinity corresponds to a Ki of 50.1 nM.
`Oc1cc(-c2ccccc2)nc2nc(Cl)ccc12` showed a Ki of 0.158 nM.
For `Oc1c(-c2ccco2)nnc2nc3ccccc3n12` the value was 251 nM.
With `Oc1c(-c2ccccc2)nnc2nc3ccccc3n12`, the affinity corresponds to a Ki of 79.4 nM.
Regarding `Cc1ccc2c(Cl)cc(-c3ccccc3)nc2n1`, the Ki was 1000 nM. Compared with the last compound, the Ki is about 13-fold higher.
With `Cc1ccc2c(O)ccnc2n1`, the affinity, expressed as Ki, was 7940 nM.
The value for `Cc1nnc2n(C)c3ccccc3n2c1=O` was 10000 nM; that for `O=c1n(-c2cccc(F)c2)nc2c(NC3CCCCC3)nc3ccccc3n12` was 5.01 nM; that for `COc1ccc(-c2nnc3n(C)c4ccccc4n3c2=O)cc1` was 2000 nM.
With `CCOC(=O)c1cnc2c(cnn2CC(Cl)c2ccccc2)c1N1CCOCC1` (stereo not given), the Ki was 501 nM. This Ki is about 4-fold lower than that of the compound before.
`CCCc1cc(O)c2ccc(N)nc2n1` gave a Ki of 200 nM.
